Test results: patent EP1029544A1, “INTRA-CANCER-CELL NUCLEASE ACTIVATOR” (Nippon Shinyaku Co., Ltd., priority 1997, dated 1999)
Values after ≈ are worked out from the molar mass of the structure shown.

Key:
Experiment in all cases: Growth inhibitory effect (in vitro), MTT method
Format in all cases: cell-based
KB = settings: Homo sapiens, 72 h, Oral epidemiod carcinoma, 3 days
Method: (§1) A 96-well plate was seeded with cells at a density of 10^4 cells/well. On the following day, the activator of Example 4 or adriamycin was added and the cultivation was continued. After 3 days the viable cell count was determined by the MTT method.

HCC-T = settings: 72 h, Liver cancer, 3 days
Method: as §1

A673 = settings: Homo sapiens, 72 h; A673, Rhabdomyosarcoma; 3 days
Method: as §1

OVCAR3 = settings: Homo sapiens, OVCAR-3, 72 h; OVCAR3, Ovary adenocarcinoma; 3 days
Method: as §1

Hs0578T = settings: 72 h, Breast ductal carcinoma, 3 days
Method: as §1

WRL68 = settings: 72 h; WRL68, Human embryo liver cell (non-cancer); 3 days
Method: as §1

SK-OV-3 = settings: Homo sapiens, 72 h; SK-OV-3, Ovary adenocarcinoma; 3 days
Method: as §1

BALB/c CL.7 = settings: 72 h; BALB/c CL.7, Mouse normal fibroblast (non-cancer); 3 days
Method: as §1

NRK-49F = settings: 72 h, Rat normal kidney fibroblast (non-cancer), 3 days
Method: as §1

HT1376 = settings: Homo sapiens, HT-1376, 72 h; HT1376, Bladder carcinoma; 3 days
Method: as §1

TSU-PR-1 = settings: Homo sapiens, TSU-Pr1, 72 h; TSU-PR-1, Prostate cancer; 3 days
Method: as §1

A546 = settings: 72 h; A546, Lung carcinoma; 3 days
Method: as §1

PLC/PRF/5 = settings: Homo sapiens, 72 h; PLC/PRF/5, Hepatoma; 3 days
Method: as §1

LoVo = settings: Homo sapiens, 72 h, Colon adenocarcinoma, 3 days
Method: as §1

SAOS2 = settings: Homo sapiens, SAOS-2, 72 h; SAOS2, Osteogenic sarcoma; 3 days
Method: as §1

HT144 = settings: Homo sapiens, HT-144, 72 h; HT144, Malignant melanoma; 3 days
Method: as §1

Swiss/3T3 = settings: 72 h; Swiss/3T3, Mouse embryonic cell (non-cancer); 3 days
Method: as §1

AsPC-1 = settings: Homo sapiens, ASPC1, 72 h; AsPC-1, Pancreatic adenocarcinoma; 3 days
Method: as §1

CALU6 = settings: Homo sapiens, Calu-6, 72 h; CALU6, Lung anaplastic carcinoma; 3 days
Method: as §1

DU145 = settings: Homo sapiens, DU-145, 72 h; DU145, Prostate carcinoma; 3 days
Method: as §1

BALB/c3T3 cloneA31 = settings: 72 h; BALB/c3T3 cloneA31, Mouse embryonic cell (non-cancer); 3 days
Method: as §1

PC-3 = settings: Homo sapiens, 72 h; PC-3, Prostate adenocarcinoma; 3 days
Method: as §1

RT4 = settings: Homo sapiens, RT-4, 72 h; RT4, Bladder papillima; 3 days
Method: as §1

BNL CL.2 = settings: 72 h; BNL CL.2, Mouse normal liver cell (non-cancer); 3 days
Method: as §1

MDA-MB-453 = settings: Homo sapiens, 72 h; MDA-MB-453, Breast carcinoma; 3 days
Method: as §1

A-204 = settings: Homo sapiens, A204, 72 h; A-204, Rhabdomyosarcoma; 3 days
Method: as §1

Clone9 = settings: 72 h; Clone9, Rat normal liver cell (non-cancer); 3 days
Method: as §1

WM-266-4 = settings: Homo sapiens, 72 h; WM-266-4, Melanoma; 3 days
Method: as §1

CHO-K1 = settings: Cricetulus griseus, 72 h; CHO-K1, Chinese hamster ovary cell (non-cancer); 3 days
Method: as §1

A431 = settings: Homo sapiens, A-431, 72 h; A431, Epidemoid carcinoma; 3 days
Method: as §1

MDA-MB-134VI = settings: Homo sapiens, 72 h, Breast ductal carcinoma, 3 days
Method: as §1

SK-BR-3 = settings: Homo sapiens, 72 h; SK-BR-3, Breast adenocarcinoma; 3 days
Method: as §1

NC65 = settings: 72 h; NC65, Pancreatic cancer; 3 days
Method: as §1

NCTCclone1469 = settings: 72 h; NCTCclone1469, Mouse normal liver cell (non-cancer); 3 days
Method: as §1

COLO320DM = settings: Homo sapiens, COLO 320DM, 72 h, Colon adenocarcinoma, 3 days
Method: as §1

McA-8994 = settings: 72 h; McA-8994, Rat hepatoma; 3 days
Method: as §1

SK-HEP-1 = settings: Homo sapiens, SK-HEP1, 72 h; SK-HEP-1, Liver adenocarcinoma; 3 days
Method: as §1

KM12-HX = settings: Homo sapiens, 72 h, Colon cancer, 3 days
Method: as §1

NIH/3T3 = settings: NIH3T3, 72 h; NIH/3T3, Mouse embryonic cell (non-cancer); 3 days
Method: as §1

Malme 3M = settings: Homo sapiens, 72 h, Malignant melanoma, 3 days
Method: as §1

T47D = settings: Homo sapiens, 72 h, Breast ductal carchoma, 3 days
Method: as §1

MDA-MB-468 = settings: Homo sapiens, 72 h; MDA-MB-468, Breast adenocarcinoma; 3 days
Method: as §1

Ls174T = settings: Homo sapiens, 72 h, Colon adenocarcinoma, 3 days
Method: as §1

G-361 = settings: Homo sapiens, 72 h; G-361, Malignant melanoma; 3 days
Method: as §1

HeLaS3 = settings: Homo sapiens, HeLa S3, 72 h; HeLaS3, Cervix epitheloid carcinoma; 3 days
Method: as §1

SW480 = settings: Homo sapiens, 72 h; SW480, Colon adenocarcinoma; 3 days
Method: as §1

BHK-21 = settings: Mesocricetus auratus, 72 h; BHK-21, Hamster kidney cell (non-cancer); 3 days
Method: as §1

RD = settings: Homo sapiens, 72 h, Rhabdomyosarcoma, 3 days
Method: as §1

## COc1cccc2c1C(=O)c1c(O)c3c(c(O)c1C2=O)C[C@@](O)(C(=O)CO)C[C@@H]3O[C@H]1C[C@H](N)[C@H](O)[C@H](C)O1 [Adriamycin]
KB
  IC50: 0.025 µg/mL (≈ 0.046 µM)
HCC-T
  IC50: 0.076 µg/mL (≈ 0.14 µM)
A673
  IC50: 0.104 µg/mL (≈ 0.191 µM)
OVCAR3
  IC50: > 1 µg/mL
Hs0578T
  IC50: 0.76 µg/mL (≈ 1.4 µM)
WRL68
  IC50: 0.283 µg/mL (≈ 0.521 µM)
SK-OV-3
  IC50: 0.252 µg/mL (≈ 0.464 µM)
BALB/c CL.7
  IC50: 0.117 µg/mL (≈ 0.215 µM)
NRK-49F
  IC50: > 1 µg/mL
HT1376
  IC50: 0.217 µg/mL (≈ 0.399 µM)
TSU-PR-1
  IC50: 0.572 µg/mL (≈ 1.05 µM)
A546
  IC50: 0.831 µg/mL (≈ 1.53 µM)
PLC/PRF/5
  IC50: 0.042 µg/mL (≈ 0.0773 µM)
LoVo
  IC50: 0.065 µg/mL (≈ 0.12 µM)
SAOS2
  IC50: 0.075 µg/mL (≈ 0.138 µM)
HT144
  IC50: 0.219 µg/mL (≈ 0.403 µM)
Swiss/3T3
  IC50: 0.903 µg/mL (≈ 1.66 µM)
AsPC-1
  IC50: 0.8 µg/mL (≈ 1.47 µM)
CALU6
  IC50: 0.282 µg/mL (≈ 0.519 µM)
DU145
  IC50: 0.236 µg/mL (≈ 0.434 µM)
BALB/c3T3 cloneA31
  IC50: 0.427 µg/mL (≈ 0.786 µM)
PC-3
  IC50: > 1 µg/mL
RT4
  IC50: 0.058 µg/mL (≈ 0.107 µM)
BNL CL.2
  IC50: 0.398 µg/mL (≈ 0.732 µM)
MDA-MB-453
  IC50: 0.143 µg/mL (≈ 0.263 µM)
A-204
  IC50: 0.076 µg/mL (≈ 0.14 µM)
Clone9
  IC50: 0.228 µg/mL (≈ 0.419 µM)
WM-266-4
  IC50: 0.206 µg/mL (≈ 0.379 µM)
CHO-K1
  IC50: 0.02 µg/mL (≈ 0.0368 µM)
A431
  IC50: 0.052 µg/mL (≈ 0.0957 µM)
MDA-MB-134VI
  IC50: 0.081 µg/mL (≈ 0.149 µM)
SK-BR-3
  IC50: 0.078 µg/mL (≈ 0.144 µM)
NC65
  IC50: 0.073 µg/mL (≈ 0.134 µM)
NCTCclone1469
  IC50: 0.101 µg/mL (≈ 0.186 µM)
COLO320DM
  IC50: 0.838 µg/mL (≈ 1.54 µM)
McA-8994
  IC50: > 1 µg/mL
SK-HEP-1
  IC50: 0.302 µg/mL (≈ 0.556 µM)
KM12-HX
  IC50: 0.13 µg/mL (≈ 0.239 µM)
NIH/3T3
  IC50: 0.102 µg/mL (≈ 0.188 µM)
Malme 3M
  IC50: 0.114 µg/mL (≈ 0.21 µM)
T47D
  IC50: 0.114 µg/mL (≈ 0.21 µM)
MDA-MB-468
  IC50: 0.057 µg/mL (≈ 0.105 µM)
Ls174T
  IC50: 0.096 µg/mL (≈ 0.177 µM)
G-361
  IC50: 0.146 µg/mL (≈ 0.269 µM)
HeLaS3
  IC50: 0.049 µg/mL (≈ 0.0902 µM)
SW480
  IC50: 0.097 µg/mL (≈ 0.178 µM)
BHK-21
  IC50: 0.047 µg/mL (≈ 0.0865 µM)
RD
  IC50: 0.208 µg/mL (≈ 0.383 µM)
